Patent publication US8242087B2, “Phosphate modified nucleosides useful as substrates for polymerases and as antiviral agents” (priority 2007, dated 2012)

Assays:
Type in all cases: biochemical, HIV-1
[1] = target: T1, HIV reverse transcriptase (Human immunodeficiency virus type 1 group M subtype B, UniProt P03366); experiment: Gel-based single-nucleotide-incorporation and control assays with HIV RT (Example 4); conditions: for conversion to a n+1 strand: 60 min, 500 μM nucleotide concentration, P1T2 (9), P1T4 (10), P2T4 (11); for control experiment with a mismatch sequence: A against A P1T4 (12), G against A P1T4 (9), T against C P1T2 (10), C against T P1T1 (11); for incorporation with blunt ended duplex: primer P1, template A
T1 construct: performed for the enzyme HIV reverse transcriptase (GE Healthcare, 30 U/4 stock solution); purchased GE Healthcare
Experimental: End-labeled primers were annealed to their template by combining primer and templates in a molar ratio of 1:2 and heating the mixture to 70° C. for 10 minutes, followed by slow cooling to room temperature over a period of 2.5 hours. For the incorporation of L-Asp-dGMP (9), L-Asp-dTMP (10), L-Asp-dCMP (11), and N-Me-Asp-dAMP (12) (see FIG. 13), the primer P1 was annealed to templates T1, T2, T4 or A and P2 was annealed to T4. A series of 20 μL reactions was performed for the enzyme HIV reverse transcriptase (GE Healthcare, 30 U/4 stock solution). The final mixture contained 125 nM primer-template complex, RT buffer (250 mM TrisHCl, 250 mM KCl, 50 mM MgCl2, 2.5 mM spermidine, 50 mM DTT, pH 8.3), 0.03 U/μL HIV RT and different amino acid phosphoramidates building blocks concentrations. In the control reaction with the natural nucleotide, 10 μM or 50 μM dGTP, dTTP, dATP or dCTP were used. The mixture was incubated at 37° C. […] and aliquots were quenched after 5, 10, 20, 30, 60 and 120 minutes respectively.
(§1) All polymerase reactions (3 μL) were quenched by the addition of 10 μL of loading buffer (90% formamide, 0.05% bromophenol blue, 0.05% xylene cyanol and 50 mM EDTA). Samples were heated at 70° C. for 5 minutes prior to analysis by electrophoresis for 2-3 hours at 2000 V on a 0.4 mm 20% denaturing gel in the presence of a 100 mM Tris-borate, 2.5 mM EDTA buffer, pH 8.3. Products were visualized by phosphor imaging. The amount of radioactivity in the bands corresponding to the products of enzymatic reactions was determined by using the Optiquant image analysis software (Perkin Elmer).

[2] = target: T1, HIV reverse transcriptase; experiment: Steady-state kinetic assay of Asp-dNMP incorporation by HIV RT (Example 4); conditions: 37° C.; P1-T2, P1-T4 or P2T4
Experimental: To determine the kinetic parameters of the incorporation of Asp-dGMP (9), Asp-dTMP (10), Asp-dCMP (11) or dGTP, dTTP, dCTP, a steady-state kinetic assay was carried out. The reaction mixture was started by adding HIV reverse transcriptase to P1-T2, P1-T4 or P2T4 complex, buffer and Asp-dGMP, Asp-dTMP, Asp-dCMP or dGTP, dTTP, dCTP. The final mixture (20 μL) contained 0.015 or 0.0075 U/μL HIV reverse transcriptase, buffer, 125 nM primer-template complex and various concentrations of Asp-dNMP or dNTP. A concentration range of 0.01-1 mM was used for Asp-dNPM and a concentration range of 0.1-10 μM was used for dNTP. Reactions were incubated at 37° C. Reaction times were between 1 and 120 minutes. The kinetic constants Vmax and KM were determined from a Michaëlis-Menten plot, using GraphPad Prism version 3.02.
as §1

HIV RT = target: T2, HIV RT (Human immunodeficiency virus type 1 group M subtype B, UniProt P03366); experiment: Steady state kinetics of single nucleotide incorporation by HIV RT (P1/T1); conditions: P1/T1, 37° C.
T2 construct: HIV RT polymerase was purchased from GE Healthcare; purchased GE Healthcare (Amersham Bioscience)
Experimental: The steady steate kinetics of a single nucleotide incorporation of an amino acid phosphoramidate (AA-dAMP) and of a natural nucleoside triphosphate (dATP) was determined by the gel-based polymerase assay. In all the experiments, the template T1 and the primer P1 were used (Table 1). The primer and template in 1:2 molar ratio were hybridized in a buffer containing 20 mM TRIS.HCl, 10 mM KCl, 2 mM MgSO4, 0.1% Triton X-100, pH 8.8 and used in an amount to provide 125 nM concentration of the primer in each 12 μL reaction. The range of concentrations for amino acid phosphoramidates was optimized according to a Km value for the incorporation of an individual nucleotide. In the case of HIV RT (Amersham Bioscience (GE Healthcare), 30 U/μL), reaction mixtures containing the enzyme in concentration to attain 5-20% conversion and appropriate substrate concentration (nucleoside phosphoramidate or natural dNTP) were incubated at 37° C. and run for 8-10 different time intervals. Kinetic analysis of single nucleotide incorporation by Therminator DNA polymerase (NEB, 2 U/μL) was performed similarly except the incubations and polymerase reactions, which were carried out at 70° C. To prevent solvent condensation/evaporation, the reaction mixtures were topped with mineral oil. The reactions were quenched by addition of the buffer containing 80% formamide, 2 mM EDTA, 1×TBE buffer. The analysis of polymerase reactions was performed by polyacrylamide gel electrophoresis (20% (19:1 mono:bis), 7M urea, 30 cm×40 cm×0.4 mm). The relative band intensities were measured using OptiQuant software. The rates of incorporation (V) were calculated based on the percentage of the extension production (n+1 band). The kinetic parameters (Vmax and Km) were determined by plotting V (pmol/min·U) versus substrate concentration and fitting the data point to a rectangular hyperbola using GraphPad Prism software.

[3] = target: T1, HIV reverse transcriptase; experiment: Gel-based single-nucleotide-incorporation and control assays with HIV RT (Example 4); conditions: P1/T2, compound 9 alone
[4] = target: T3, HIV reverse transcriptase (HIV RT) (Human immunodeficiency virus type 1 group M subtype B, UniProt P03366); experiment: Single nucleotide incorporation by HIV RT, gel-based, P1/T1 (Examples 2-3); conditions: single nucleotide incorporation, FIG. 4
T3 construct: HIV RT polymerase was purchased from GE Healthcare; purchased GE Healthcare (Amersham Bioscience)
Experimental: A typical single nucleotide incorporation and primer extension assays using HIV RT polymerase was carried out similar to one described in the literature. HIV RT polymerase was purchased from GE Healthcare and was supplied as either 12 or 30 U/μL stock solution. The final concentration of HIV RT in a reaction mixture was 0.03-0.003 U/μL. A primer/template duplex mixture was prepared by combining appropriate amounts of a 5′-^33P-labeled primer (P1) and a template in 1:2 molar ratio to provide a 4× solution with 0.5 μM primer concentration. The polymerase reactions were carried out in a 5×RT buffer containing 250 mM TRIS.HCL, 250 mM KCl, 50 mM MgCl2, 2.5 mM spermidine, 50 mM DTT, pH 8.3. For the single nucleotide incorporation assay, a P1/T1 primer-template pair was used whereas the primer extension study was performed with P1/T3 and P1/T5 primer-template pairs.
Briefly, a mixture containing 5 μL of the 4× primer/DNA duplex solution and 5 μL of 4× polymerase solution was pre-incubated at 37° C. for 2 minutes to ensure formation a DNA polymerase/DNA duplex complex. Simultaneously, 2× solutions of dNTP to provide final concentrations of 100 μM, 200 μM, 500 μM and 1 mM were also pre-incubated at 37° C. for 2 minutes as well. The polymerase reaction in a total volume of 20 μL was initiated by addition of 10 μL of the 2× dNTP solution to the DNA polymerase/DNA duplex mixture. The reactions were run at 37° C. and aliquots (2.5 μL) were removed at specified time points and mixed with 10 μL of a quenching buffer containing 80% formamide, 2 mM EDTA, 1×TBE. Quenched reactions were analyzed by loading 2 μL of a reaction sample onto a 20% denaturing polyacrylamide:gel (19:1 acrylamide:bisacrylamide, 7M urea, 0.4 mm×30 cm×40 cm) made in 1×TBE buffer (90 mM Tris-borate, 2 mM EDTA, pH 8.3). The gel was pre-equilibrated for 2 hours before loading and the reactions were run along with a tracking dye marker containing bromophenol blue (BB) and xylene cyanol (XC) until the BB dye had run ⅔ of the total gel length. For visualization, gels were scanned using a Cyclone Phosphoroimager.

`Cc1cn([C@H]2C[C@H](O)[C@@H](COP(=O)(O)N[C@@H](CC(=O)O)C(=O)O)O2)c(=O)[nH]c1=O` [Compound 10, 2′-Deoxythymidine-5′-aspartyl phosphoramidate] was tested, and the “conversion to a n+1 strand” value [1] was 95%, the “control experiment with a mismatch sequence” value (from here on “control experiment”) [1] was “primer elongation was not observed” and the “incorporation with blunt ended duplex” value [1] was “none of these compounds incorporated at all”. It also gave a Km [2] of 288 ± 61.7 µM and a Vmax [2] of 2.33 ± 0.22 pmolmin^−1U.

For `Nc1nc2c(ncn2[C@H]2C[C@H](O)[C@@H](COP(=O)(O)OP(=O)(O)OP(=O)(O)O)O2)c(=O)[nH]1` [dGTP, reference compound], the Km [2] was 0.54 ± 1.55 µM and the Vmax [2] was 28.81 ± 1.55 pmolmin^−1U.

Work on `Cc1cn([C@H]2C[C@H](O)[C@@H](COP(=O)(O)OP(=O)(O)OP(=O)(O)O)O2)c(=O)[nH]c1=O` [dTTP, reference compound] yielded a Km [2] of 0.53 ± 0.07 µM and a Vmax [2] of 30.82 ± 1.44 pmolmin^−1U.

`Nc1ncnc2c1ncn2[C@H]1C[C@H](O)[C@@H](COP(=O)(O)OP(=O)(O)OP(=O)(O)O)O1` [dATP, reference compound] was tested, and the Km (HIV RT) was 0.46 ± 0.15 µM and the Vmax (HIV RT) was 8.39 ± 0.82 pmol/min · U.

With `Nc1ccn([C@H]2C[C@H](O)[C@@H](COP(=O)(O)N[C@@H](CC(=O)O)C(=O)O)O2)c(=O)n1` [Compound 11, 2′-Deoxycytidine-5′-aspartyl phosphoramidate] the “conversion to a n+1 strand” value [1] was 82%, the “control experiment” value [1] was “primer elongation was not observed” and the “incorporation with blunt ended duplex” value [1] was “none of these compounds incorporated at all”. It also gave a Km [2] of 131 ± 19.8 µM and a Vmax [2] of 0.59 ± 0.04 pmolmin^−1U.

For `CN(C(CC(=O)O)C(=O)O)P(=O)(O)OC[C@H]1O[C@@H](n2cnc3c(N)ncnc32)C[C@@H]1O` (some centres unmarked) [Compound 12, 2′-Deoxyadenosine-5′-N-methylaspartyl phosphoramidate], the “control experiment” value [1] was “misincorporated against adenine”, the “base-pairing selectivity of incorporation” value ([1]; P1/T1) was “without base-pairing selectivity” and the “substrate quality for HIV-RT” value ([1]; P1/T1) was “good substrate”.

Molecule `Nc1ccn([C@H]2C[C@H](O)[C@@H](COP(=O)(O)OP(=O)(O)OP(=O)(O)O)O2)c(=O)n1` [dCTP, reference compound] has a Km [2] of 3.74 ± 0.95 µM and a Vmax [2] of 5.62 ± 0.80 pmolmin^−1U.

In the case of `Nc1nc2c(ncn2[C@H]2C[C@H](O)[C@@H](COP(=O)(O)N[C@@H](CC(=O)O)C(=O)O)O2)c(=O)[nH]1` [Compound 9, 2′-Deoxyguanosine-5′-aspartyl phosphoramidate], the “conversion to a n+1 strand” value [1] is reported as 92%, the “control experiment” value [1] is reported as “primer elongation was not observed” and the “incorporation with blunt ended duplex” value [1] is reported as “none of these compounds incorporated at all”. For the same molecule, the Km [2] was 169 ± 27.9 µM, the Vmax [2] was 2.143 ± 0.13 pmolmin^−1U and the “n+1 conversion (incorporation)” value ([3]; 4 hours (same as at 2 hours)) was 95%. For the same molecule, the “misincorporation” value ([3]; four hours) was “no misincorporation was observed”.

In the case of `CC(NP(=O)(O)OC[C@H]1O[C@@H](n2cnc3c(N)ncnc32)C[C@@H]1O)C(=O)O` (some centres unmarked) [Compound 4, 2′-deoxy-adenosine-5′-alanyl-phosphoramidate], the “fold reduction in primer extension” value [4] is reported as 7 fold.
